Non-standard residues stand in square brackets, D forms with d. Residues, ends and D or L forms follow the SMILES beside them. Groups on a side chain read outwards from the residue. *: point of attachment. DM1Mal(CH2)2CO = COc1cc2cc(c1Cl)N(C)C(=O)C[C@H](OC(=O)[C@H](C)N(C)C(=O)CCSC1CC(=O)N(CCC(=O)*)C1=O)[C@]1(C)O[C@H]1[C@H](C)[C@@H]1C[C@@](O)(NC(=O)O1)[C@H](OC)/C=C/C=C(\C)C2; X2 = CC(=O)N[C@@H](CSC1CC(=O)N(CCC(=O)*)C1=O)C(=O)O; Dolaproine = CO[C@@H]([C@@H]1CCCN1)[C@@H](C)C(=O)O; Dil = CC[C@H](C)[C@H](NC)[C@@H](CC(=O)O)OC; NMe2Val = CC(C)[C@@H](C(=O)*)N(C)C; PEG5 = NCCOCCOCCOCCOCCOCCC(=O)O; Cit = NC(=O)NCCC[C@H](N)C(=O)O; PEG4 = NCCOCCOCCOCCOCCC(=O)O
Target: T1, Cathepsin B (Homo sapiens, UniProt P07858)
T1 construct: purchased R&D Systems, Bio-Techne AG 953-CY-010
Assay: Cat B-induced cleavage, in vitro enzymatic cleavage assay with UHPLC-MS/MS
Format: biochemical
Conditions: for Ratio (T1/2 Compound/T1/2 Reference): versus Cys-MC-Val-Cit-PABC-MMAF; for half-life at 10 μM: human, recombinant human Cathepsin B (activated), 10 μM test compound, Cathepsin B 2 μg/mL, MES buffer pH 5.0, 37° C., read-out: T1/2 Compound
Description: Cat B-induced cleavage of the antibody-drug conjugates can be evaluated according to the in vitro enzymatic cleavage assay using recombinant human Cathepsin B (commercially acquired from R&D Systems, Bio-Techne AG, cat #. 953-CY-010 in the form of a precursor) and UHPLC-MS/MS analysis.
Briefly, the enzyme is reconstituted in 25 mM 2-(N-morpholino) ethanesulfonic acid (MES) buffer adjusted at pH 5.0 with a 1M NaOH solution and then activated with a […] solution of Dithiothreitol (DDT) at room temperature for at least 15 min. The in vitro enzymatic assay is conducted at 37° C. with the test compound at a concentration of 10 μM (when the test compound is a linker according to the present invention wherein the maleimide group has been quenched in the presence of acetyl-cysteine (Ac-Cys-OH)) or 2.5 μM (when the test compound is an antibody-drug conjugate) in the presence of activated recombinant human Cathepsin B enzyme at 2 μg/mL in a 25 mM MES buffer pH 5.0. The enzymatic cleavage reaction is stopped for each defined time point by mixing a 1/10 ratio volume of acetonitrile+0.1% formic acid (FA) containing an internal standard (warfarine at 0.5 μM). Analysis is conducted using a Waters Acquity UPLC System coupled to a Waters Xevo TQ triple quad mass spectrometer. UHPLC is conducted with a HSS T3 1.8 μm 50×2.1 mm column (Waters) heated at 45° C. and fitted with 2 μm insert filter pre-column (Waters), and solvent systems A1 (H2O+0.1% FA) and B1 (acetonitrile+0.1% FA) at a flow rate of 0.6 mL/min and a 5-95% gradient of B1 over 2.0 min. MS/MS is performed using electrospray ionization (ESI) interface in positive mode and specific MRM transitions for each compound.
The propensity of compounds 1-13 to be cleaved by Cathepsin B was evaluated according to an in vitro enzymatic cleavage assay using recombinant human Cathepsin B and UHPLC-MS/MS analysis as described in Section 2.3.5 above.

| SMILES | Ratio (T1/2 Compound/T1/2 Reference) | Cat B-induced drug release, times faster than reference (compared to Cys-MC-Val-Cit-PABC-MMAF) [times] | half-life at 10 μM [min] |
| --- | --- | --- | --- |
| CC[C@H](C)[C@@H]([C@@H](CC(=O)N1CCC[C@H]1[C@H](OC)[C@@H](C)C(=O)N[C@@H](Cc1ccccc1)C(=O)N[C@@H](CCCNC(=N)N)C(=O)N[C@@H](CCCCNC(=O)CCOCCOCCOCCOCCOCCNC(=O)CCN1C(=O)CC(SC[C@H](NC(C)=O)C(=O)O)C1=O)C(=O)N[C@@H](Cc1ccccc1)C(=O)O)OC)N(C)C(=O)[C@@H](NC(=O)[C@H](C(C)C)N(C)C)C(C)C (stereo partly drawn) [compound 1, AF-Arg-Lys(PEG4-Mal-Cys-Ac)-Phe-OH] (NMe2Val-V[Dil][Dolaproine]FRK([PEG5-X2])F-OH) | 0.12 |  |  |
| CC[C@H](C)[C@@H]([C@@H](CC(=O)N1CCC[C@H]1[C@H](OC)[C@@H](C)C(=O)N[C@@H](Cc1ccccc1)C(=O)N[C@@H](CCCNC(=N)N)C(=O)N[C@@H](Cc1ccccc1)C(=O)N[C@@H](CCCCNC(=O)CCOCCOCCOCCOCCNC(=O)CCN1C(=O)CC(SC[C@H](NC(C)=O)C(=O)O)C1=O)C(=O)O)OC)N(C)C(=O)[C@@H](NC(=O)[C@H](C(C)C)N(C)C)C(C)C (stereo partly drawn) [compound 3, AF-Arg-Phe-Lys(PEG4-Mal-Cys-Ac)-OH] (NMe2Val-V[Dil][Dolaproine]FRFK([PEG4-X2])-OH) | 0.11 |  |  |
| COc1cc2cc(c1Cl)N(C)C(=O)C[C@H](OC(=O)[C@H](C)N(C)C(=O)CCSC1CC(=O)N(CCC(=O)N[C@@H](Cc3ccccc3)C(=O)N[C@@H](CCCCN)C(=O)N[C@@H](CCCCNC(=O)CCOCCOCCOCCOCCNC(=O)CCN3C(=O)CC(SC[C@H](NC(C)=O)C(=O)O)C3=O)C(=O)N[C@@H](Cc3ccccc3)C(=O)O)C1=O)[C@]1(C)O[C@H]1[C@H](C)[C@@H]1C[C@@](O)(NC(=O)O1)[C@H](OC)/C=C/C=C(\C)C2 (stereo partly drawn) [compound 5, DM1-Mal-Phe-Lys-Lys(PEG4-Mal-Cys-Ac)-Phe-OH] ({DM1Mal(CH2)2CO}-FKK([PEG4-X2])F-OH) | 0.05 | 20 |  |
| COc1cc2cc(c1Cl)N(C)C(=O)C[C@H](OC(=O)[C@H](C)N(C)C(=O)CCSC1CC(=O)N(CCC(=O)N[C@@H](Cc3ccccc3)C(=O)N[C@@H](CCCNC(N)=O)C(=O)N[C@@H](CCCCNC(=O)CCOCCOCCOCCOCCNC(=O)CCN3C(=O)CC(SC[C@H](NC(C)=O)C(=O)O)C3=O)C(=O)N[C@@H](Cc3ccccc3)C(=O)O)C1=O)[C@]1(C)O[C@H]1[C@H](C)[C@@H]1C[C@@](O)(NC(=O)O1)[C@H](OC)/C=C/C=C(\C)C2 (stereo partly drawn) [compound 6, DM1-Mal-Phe-Cit-Lys(PEG4-Mal-Cys-Ac)-Phe-OH] ({DM1Mal(CH2)2CO}-F[Cit]K([PEG4-X2])F-OH) | 0.02 |  |  |
| COc1cc2cc(c1Cl)N(C)C(=O)C[C@H](OC(=O)[C@H](C)N(C)C(=O)CCSC1CC(=O)N(CCC(=O)N[C@@H](Cc3ccccc3)C(=O)N[C@@H](CCCNC(N)=O)C(=O)N[C@@H](Cc3ccccc3)C(=O)N[C@@H](CCCCNC(=O)CCOCCOCCOCCOCCNC(=O)CCN3C(=O)CC(SC[C@H](NC(C)=O)C(=O)O)C3=O)C(=O)O)C1=O)[C@]1(C)O[C@H]1[C@H](C)[C@@H]1C[C@@](O)(NC(=O)O1)[C@H](OC)/C=C/C=C(\C)C2 (stereo partly drawn) [compound 7, DM1-Mal-Phe-Cit-Phe-Lys(PEG4-Mal-Cys-Ac)-OH] ({DM1Mal(CH2)2CO}-F[Cit]FK([PEG4-X2])-OH) | 0.09 |  |  |
| CC[C@H](C)[C@@H]([C@@H](CC(=O)N1CCC[C@H]1[C@H](OC)[C@@H](C)C(=O)N[C@@H](Cc1ccccc1)C(=O)N[C@@H](CCCNC(N)=O)C(=O)N[C@@H](CCCCNC(=O)CCOCCOCCOCCOCCNC(=O)CCN1C(=O)CC(SC[C@H](NC(C)=O)C(=O)O)C1=O)C(=O)N[C@@H](Cc1ccccc1)C(=O)O)OC)N(C)C(=O)[C@@H](NC(=O)[C@H](C(C)C)N(C)C)C(C)C (stereo partly drawn) [compound 8, AF-Cit-Lys(PEG4-Mal-Cys-Ac)-Phe-OH] (NMe2Val-V[Dil][Dolaproine]F[Cit]K([PEG4-X2])F-OH) | 0.09 |  |  |
| COc1cc2cc(c1Cl)N(C)C(=O)C[C@H](OC(=O)[C@H](C)N(C)C(=O)CCSC1CC(=O)N(CC3CCC(C(=O)N[C@@H](Cc4ccccc4)C(=O)N[C@@H](CCCNC(N)=O)C(=O)N[C@@H](CCCCNC(=O)CCOCCOCCOCCOCCOCCNC(=O)CN4C(=O)CC(SC[C@H](NC(C)=O)C(=O)O)C4=O)C(=O)N[C@@H](Cc4ccc(O)cc4)C(=O)O)CC3)C1=O)[C@]1(C)O[C@H]1[C@H](C)[C@@H]1C[C@@](O)(NC(=O)O1)[C@H](OC)/C=C/C=C(\C)C2 (stereo partly drawn) [compound 11, DM1-Mcc-Phe-Cit-Lys(PEG5-Mal-Cys-Ac)-Tyr-OH] | 0.005 |  | < 1 |
| COc1cc2cc(c1Cl)N(C)C(=O)C[C@H](OC(=O)[C@H](C)N(C)C(=O)CCSC1CC(=O)N(CC3CCC(C(=O)N[C@@H](CCCNC(N)=O)C(=O)N[C@@H](CCCCNC(=O)CCOCCOCCOCCOCCOCCNC(=O)CN4C(=O)CC(SC[C@H](NC(C)=O)C(=O)O)C4=O)C(=O)N[C@@H](Cc4ccc(O)cc4)C(=O)O)CC3)C1=O)[C@]1(C)O[C@H]1[C@H](C)[C@@H]1C[C@@](O)(NC(=O)O1)[C@H](OC)/C=C/C=C(\C)C2 (stereo partly drawn) [compound 12, DM1-Mcc-Cit-Lys(PEG5-Mal-Cys-Ac)-Tyr-OH] | 0.00004 |  | < 1 |
